This is an account of results in patent US12565520B2, “Chemically-stabilized allosteric modulators of leucine-rich repeat kinase 2 (LRRK2)” (UNIVERSITY OF GEORGIA RESEARCH FOUNDATION, INC., priority 2020, dated 2026).

“Also recorded” adds a separate entry of the source.

One experiment has as its system RAW 264.7 cells. Description: ROS production assay (CellROX, zymosan). It counts as cell-based. The note with it: 10 μM peptide 9 hours, then Zymosan 50 μg/mL 30 mins. Here is the method:
ROS production assay. Flow cytometry was used to measure reactive oxygen species (ROS) through fluorescence emission of the CellROX deep red dye (Life Technologies). RAW264.7 cells (ATCC® SC-6003™) were plated at 120,000/well in a 96-well low-adherence tissue culture plate (Costar).

Experiment [1] relates to primary cortical neurons overexpressing G2019S-LRRK2. The experiment in a line: Neuronal apoptosis in primary cortical neurons expressing G2019S-LRRK2. Conditions: 10 μM peptide, 48 h. It counts as cell-based, mouse. From the text:
Preparation of primary mouse neuronal cultures, and assessment of neuronal death. Embryonic day 16 (E16) pregnant C57BL mice were used in this study, with primary cortical neurons prepared as described (N. Antoniou et al., A motif within the armadillo repeat of Parkinson's-linked LRRK2 interacts with FADD to hijack the extrinsic death pathway. Sci Rep 8, 3455 (2018)). Briefly, under aseptic conditions, cortices were removed and cut into small pieces before enzymatic digestion (trypsin 0.05% and 100 μg/ml DNAse) and mechanical dissociation. Cells were centrifuged and counted and plated at a density of 150,000/cm^2 in BrainPhys neuronal culture medium (StemCell Technologies) supplemented with SM1 Neuronal Supplement (StemCell Technologies), L-glutamine (0.5 mM) and penicillin/[…]. After 3-4 DIV, neurons were transfected using Lipofectamine 2000 (Thermo Scientific) as per the manufacturer's instructions. Neurons were transfected with Flag-tagged WT or mutant (G2019S) human LRRK2 (as described previously). The following day, the treatment of neurons with fluorescently labeled peptides (at 10 μM final concentration) was initiated. The peptides were replenished in the neuronal medium after 24 hours, and the indicated concentrations. […] For quantification of apoptotic neuronal profiles, the approach described previously was used.

Experiment [2] concerns endogenous LRRK2 kinase activity as Rab10 phosphorylation. Description: Rab10 phosphorylation in untransfected A549 cells. The note with it: 10 μM. It counts as cell-based. From the text: To test whether disruption of LRRK2 dimerization can also attenuate Rab phosphorylation, a hyperactive LRRK2 mutant (R1441G) and Rab29 were overexpressed in HEK293T cells (Z. Liu et al., LRRK2 phosphorylates membrane-bound Rabs and is activated by GTP-bound Rab7L1 to promote recruitment to the trans-Golgi network. Hum Mol Genet 27, 385-395 (2018); and E. Purlyte et al., Rab29 activation of the Parkinson's disease-associated LRRK2 kinase. The EMBO Journal 37, 1-18 (2018)). Overexpression of Rab29 induces recruitment of LRRK2 to the trans-golgi network (TGN) and activates it there. After 24-hour transfection, cells were then treated with 10 μM peptide for 15 hours. […] To test the effect of the dimerization inhibitors on endogenous LRRK2 function, we performed a similar experiment using non-transfected A549 cells which natively express detectable levels of both LRRK2 and Rab10.

On to “COR-domain stapled peptide formed from SEQ ID NO. 16 KGEGEXLLKXWK, X = (S)-2-(4′-pentenyl)alanine; PEG3 linker, FAM or biotin label (hydrocarbon staple; PEG3 linker; FAM or biotin; COR domain peptide; (6)..(6) Xaa is (S)-2-(4′-pentenyl)alanine; (10)..(10) Xaa is (S)-2-(4′-pentenyl)alanine) [LCIP1]”, for which, in the experiment with RAW 264.7 cells, the “zymosan induced ROS production” value is “no statistically significant consequence”. The neurons undergoing apoptosis result in experiment [1] is recorded as “sharp decline in neurons undergoing apoptosis”.
For the substance “Roc-domain stapled peptide formed from SEQ ID NO. 6 DEKQRKAC(Nle)SKITKEXLNKX, X = (S)-2-(4′-pentenyl)alanine; PEG3 linker, FAM or biotin label (DEKQRKACXSKITKEXLNKX; hydrocarbon staple; Nle; PEG3 linker; FAM or biotin; ROC domain petide; (9)..(9) Xaa is norleucine; (16)..(16) Xaa is (S)-2-(4′-pentenyl)alanine; (20)..(20) Xaa is (S)-2-(4′-pentenyl)alanine) [LRIP4]”, the “Rab10 phosphorylation by endogenous LRRK2” value in experiment [2] is given as “significant reduction in phosphorylation of Rab10; also recorded: inhibition of Rab10 phosphorylation”. The “zymosan induced ROS production” value in the experiment on RAW 264.7 cells is on record as “significant reduction of zymosan induced ROS production to an extent comparable to MLi-2”. In addition, the neurons undergoing apoptosis entry in experiment [1] is given as “sharp decline in neurons undergoing apoptosis, especially for LRIP4 treated cells”.
